Drawing on patent US20250223259A1, “PROTEASE INHIBITORS FOR TREATING OR PREVENTING CORONAVIRUS INFECTION” (Merck Sharp & Dohme LLC, priority 2022, published 2025), this text covers IC50 for 21 molecules.

A word on the IC50: it is the concentration that gives 50% inhibition.

The target of the assay is SARS2 coronavirus 3CL protease (Severe acute respiratory syndrome coronavirus 2 (2019-nCoV) (SARS-CoV-2), UniProt P0DTD1). Description: SARS2 Coronavirus 3CL Protease Assay (FRET). Particulars: SARS2 3CLPro FRET assay; 5 nM enzyme, 30 min pre-incubation with compound, 15 uM peptide substrate, 4 h room temperature. Type of assay: biochemical.
For `CNC(=O)C(=O)[C@H](CCC(C)(F)F)NC(=O)[C@@H]1[C@H]2CCC[C@H]2CN1C(=O)[C@H](CC(F)(F)F)NC(=O)OC` [Example 87, methyl ((S)-1-((1S,3aR,6aS)-1-(((S)-6,6-difluoro-1-(methylamino)-1,2-dioxoheptan-3-yl)carbamoyl)hexahydrocyclopenta[c]pyrrol-2(1H)-yl)-4,4,4-trifluoro-1-oxobutan-2-yl)carbamate], the IC50 was found to be 7 nM. The result for `CCNC(=O)C(=O)[C@H](CCC(C)(F)F)NC(=O)[C@@H]1CC2(CCCCC2)CN1C(=O)[C@@H](NC(=O)OC)C(C)(C)C` [Example 8, Methyl ((S)-1-((S)-3-(((S)-1-(ethylamino)-6,6-difluoro-1,2-dioxoheptan-3-yl)carbamoyl)-2-azaspiro[4.5]decan-2-yl)-3,3-dimethyl-1-oxobutan-2-yl)carbamate] reads 18 nM; that for `CNC(=O)C(=O)[C@H](CCC(C)(F)F)NC(=O)[C@@H]1[C@H]2CCC[C@H]2CN1C(=O)C(NC(=O)OC)C1CC(F)(F)C1` (single isomer, unassigned) [Example 116, methyl ((S or R)-2-((1S,3aR,6aS)-1-(((S)-6,6-difluoro-1-(methylamino)-1,2-dioxoheptan-3-yl)carbamoyl)hexahydrocyclopenta[c]pyrrol-2(1H)-yl)-1-(3,3-difluorocyclobutyl)-2-oxoethyl)carbamate], 16 nM; that for `COC(=O)N[C@H](C(=O)N1CC2(CCC2)CC1C(=O)N[C@@H](CCC(C)(F)F)C(=O)C(=O)NC1CC1)C(C)(C)C` (single isomer, unassigned) [Example 47, Methyl ((S)-1-(R or S)-7-(((S)-1-(cyclopropylamino)-6,6-difluoro-1,2-dioxoheptan-3-yl)carbamoyl)-6-azaspiro[3.4]octan-6-yl)-3,3-dimethyl-1-oxobutan-2-yl)carbamate], 38 nM. For the molecule `CNC(=O)C(=O)[C@H](CCC(C)(F)F)NC(=O)C1CCCC(C)N1C(=O)[C@@H](NC(=O)OC)C(C)(C)C` (single isomer, unassigned) [Example 110, methyl ((S)-1-((2S,6S or 2R,6R)-2-(((S)-6,6-difluoro-1-(methylamino)-1,2-dioxoheptan-3-yl)carbamoyl)-6-methylpiperidin-1-yl)-3,3-dimethyl-1-oxobutan-2-yl)carbamate], the half-maximal inhibitory concentration (IC50) came to 61 nM. The result for `COC(=O)N[C@H](C(=O)N1CCC(C)(C)C1C(=O)N[C@@H](CCC(C)(F)F)C(=O)C(=O)NC1CC1)C(C)(C)C` (single isomer, unassigned) [Example 73, Methyl ((S)-1-((R or S)-2-(((S)-1-(cyclopropylamino)-6,6-difluoro-1,2-dioxoheptan-3-yl)carbamoyl)-3,3-dimethylpyrrolidin-1-yl)-3,3-dimethyl-1-oxobutan-2-yl)carbamate] reads 60 nM; that for `CNC(=O)N[C@H](C(=O)N1CC2(CCCCC2)C[C@H]1C(=O)N[C@@H](CCC(C)(F)F)C(=O)C(=O)NC1CC1)C(C)(C)C` [Example 75, (S)-N-((S)-1-(cyclopropylamino)-6,6-difluoro-1,2-dioxoheptan-3-yl)-2-((S)-3,3-dimethyl-2-(3-methylureido)butanoyl)-2-azaspiro[4.5]decane-3-carboxamide], 82 nM. In the case of `COC(=O)N[C@H](C(=O)N1CC2CCC(C1C(=O)N[C@@H](CCC(C)(F)F)C(=O)C(=O)NC1CC1)C2(F)F)C(C)(C)C` (single isomer, unassigned) [Example 99, methyl ((S)-1-((1(S or R),2(S or R),5(R or S))-2-(((S)-1-(cyclopropylamino)-6,6-difluoro-1,2-dioxoheptan-3-yl)carbamoyl)-8,8-difluoro-3-azabicyclo[3.2.1]octan-3-yl)-3,3-dimethyl-1-oxobutan-2-yl)carbamate] it was 100 nM. Regarding `COC(=O)N[C@@H](C)C(=O)N1CC2(CCCCC2)C[C@H]1C(=O)N[C@@H](CCC(C)(F)F)C(=O)C(=O)NC1CC1` [Example 14, Methyl ((S)-1-((S)-3-(((S)-1-(cyclopropylamino)-6,6-difluoro-1,2-dioxoheptan-3-yl)carbamoyl)-2-azaspiro[4.5]decan-2-yl)-1-oxopropan-2-yl)carbamate], the IC50 turned out to be 69 nM. In the case of `COC(=O)N[C@H](C(=O)N1C[C@H]2[C@@H]([C@H]1C(=O)N[C@@H](CCC(C)(F)F)C(=O)C(=O)NC1CC1)C(C)(C)C2(C)C)C(C)(C)C` [Example 36, Methyl ((S)-1-((1R,2S,5S)-2-(((S)-1-(cyclopropylamino)-6,6-difluoro-1,2-dioxoheptan-3-yl)carbamoyl)-6,6,7,7-tetramethyl-3-azabicyclo[3.2.0]heptan-3-yl)-3,3-dimethyl-1-oxobutan-2-yl)carbamate] it was 8.2 nM; in that of `COC(=O)N[C@H](C(=O)N1CC(C)CCC1C(=O)N[C@@H](CCC(C)(F)F)C(=O)C(=O)NC1CC1)C(C)(C)C` (single isomer, unassigned) [Example 30, Methyl ((S)-1-(2(R or S), 5(R or S)-(((S)-1-(cyclopropylamino)-6,6-difluoro-1,2-dioxoheptan-3-yl)carbamoyl)-5-methylpiperidin-1-yl)-3,3-dimethyl-1-oxobutan-2-yl)carbamate], 40 nM; in that of `COC(=O)N[C@H](C(=O)N1C[C@H](OC(F)F)C[C@H]1C(=O)N[C@@H](CCC(C)(F)F)C(=O)C(=O)NC1CC1)C(C)(C)C` [Example 113, methyl ((S)-1-((2S,4R)-2-(((S)-1-(cyclopropylamino)-6,6-difluoro-1,2-dioxoheptan-3-yl)carbamoyl)-4-(difluoromethoxy)pyrrolidin-1-yl)-3,3-dimethyl-1-oxobutan-2-yl)carbamate], 46 nM.

Consider `COC(=O)N[C@H](C(=O)N1CC2CCC2C1C(=O)N[C@@H](CCC(C)(F)F)C(=O)C(=O)NC1CC1)C(C)(C)C` (single isomer, unassigned) [Example 43, Methyl ((S)-1-((1(R or S), 2(R or S),5(R or S))-(2-(((S)-1-(cyclopropylamino)-6,6-difluoro-1,2-dioxoheptan-3-yl)carbamoyl)-3-azabicyclo[3.2.0]heptan-3-yl)-3,3-dimethyl-1-oxobutan-2-yl)carbamate], for which the IC50 was found to be 22 nM. The result for `COC(=O)N[C@H](C(=O)N1C[C@H](C(F)(F)F)C[C@H]1C(=O)N[C@@H](CCC(C)(F)F)C(=O)C(=O)NC1CC1)C(C)(C)F` [Example 71, Methyl ((R)-1-((2S,4R)-2-(((S)-1-(cyclopropylamino)-6,6-difluoro-1,2-dioxoheptan-3-yl)carbamoyl)-4-(trifluoromethyl)pyrrolidin-1-yl)-3-fluoro-3-methyl-1-oxobutan-2-yl)carbamate] reads 43 nM; that for `COC(=O)N[C@H](C(=O)N1CC2(CCCCC2)C[C@H]1C(=O)N[C@@H](CCC(C)(F)F)C(=O)C(=O)Nc1ccccc1C)C(C)(C)C` [Example 12, Methyl ((S)-1-((S)-3-(((S)-6,6-difluoro-1,2-dioxo-1-(o-tolylamino)heptan-3-yl)carbamoyl)-2-azaspiro[4.5]decan-2-yl)-3,3-dimethyl-1-oxobutan-2-yl)carbamate], 41 nM; that for `CNC(=O)C(=O)[C@H](CCC(C)(F)F)NC(=O)[C@@H]1[C@H]2CCC[C@H]2CN1C(=O)[C@@H](NC(=O)OC)C(C)(C)O` [Example 117, methyl ((S)-1-((1S,3aR,6aS)-1-(((S)-6,6-difluoro-1-(methylamino)-1,2-dioxoheptan-3-yl)carbamoyl)hexahydrocyclopenta[c]pyrrol-2(1H)-yl)-3-hydroxy-3-methyl-1-oxobutan-2-yl)carbamate], 14 nM.

`CC(C)OC(=O)N[C@H](C(=O)N1CC2(CCCCC2)C[C@H]1C(=O)N[C@@H](CCC(C)(F)F)C(=O)C(=O)NC1CC1)C1CCCCC1` [Example 50, Isopropyl ((S)-1-cyclohexyl-2-((S)-3-(((S)-1-(cyclopropylamino)-6,6-difluoro-1,2-dioxoheptan-3-yl)carbamoyl)-2-azaspiro[4.5]decan-2-yl)-2-oxoethyl)carbamate]: the IC50 was determined as 62 nM. In the case of `COC(=O)N[C@H](C(=O)N1CCC2(CCCC2)CC1C(=O)N[C@@H](CCC(C)(F)F)C(=O)C(=O)NC1CC1)C(C)(C)C` (single isomer, unassigned) [Example 34, Methyl ((S)-1-(R or S)-(7-(((S)-1-(cyclopropylamino)-6,6-difluoro-1,2-dioxoheptan-3-yl)carbamoyl)-8-azaspiro[4.5]decan-8-yl)-3,3-dimethyl-1-oxobutan-2-yl)carbamateazaspiro[4.5]decan-8-yl)-3,3-dimethyl-1-oxobutan-2-yl)carbamate] it was 7.4 nM; in that of `COC(=O)N[C@H](C(=O)N1CC2(CCCCC2)C[C@H]1C(=O)N[C@@H](CCC(C)(F)F)C(=O)C(=O)NC(C)C)C(C)(C)C` [Example 13, Methyl ((S)-1-((S)-3-(((S)-6,6-difluoro-1-(isopropylamino)-1,2-dioxoheptan-3-yl)carbamoyl)-2-azaspiro[4.5]decan-2-yl)-3,3-dimethyl-1-oxobutan-2-yl)carbamate], 49 nM. In the case of `COC(=O)N[C@@H](Cc1noc(C)n1)C(=O)N1C[C@H]2[C@@H]([C@H]1C(=O)N[C@@H](CCC(C)(F)F)C(=O)C(=O)NC1CC1)C2(C)C` [Example 123, methyl ((S)-1-((1R,2S,5S)-2-(((S)-1-(cyclopropylamino)-6,6-difluoro-1,2-dioxoheptan-3-yl)carbamoyl)-6,6-dimethyl-3-azabicyclo[3.1.0]hexan-3-yl)-3-(5-methyl-1,2,4-oxadiazol-3-yl)-1-oxopropan-2-yl)carbamate] it was 29 nM; in that of `COC(=O)N[C@H](C(=O)N1CCCCC1C(=O)N[C@@H](CCC(C)(F)F)C(=O)C(=O)NC1CC1)C(C)(C)C` (single isomer, unassigned) [Example 55, Methyl ((S)-1-((S or R)-2-(((S)-1-(cyclopropylamino)-6,6-difluoro-1,2-dioxoheptan-3-yl)carbamoyl)piperidin-1-yl)-3,3-dimethyl-1-oxobutan-2-yl)carbamate: methyl ((S)-1-((R or S)-2-(((S)-1-(cyclopropylamino)-6,6-difluoro-1,2-dioxoheptan-3-yl)carbamoyl)piperidin-1-yl)-3,3-dimethyl-1-oxobutan-2-yl)carbamate], 239 nM.
